Measured values from US20260335299A1, “SUBSTITUTED OXOISOINDOLINYL PIPERIDINE-2,6-DIONE COMPOUND AS ANTICANCER AGENT” (BRISTOL-MYERS SQUIBB COMPANY, priority 2023, published 2026).

What was measured:
IKZF3 Aiolos [1] = molecular target: T1, IKZF3 Aiolos (Homo sapiens, UniProt Q96SW2+Q9UKT9); assay: Jurkat Cellular Degradation Assay (Aiolos); type: cell-based; parameters: endogenous in cells; host or cells: Jurkat cells; details: Jurkat cells, 72 h
Procedure: Jurkat cells were plated at 80,000 cells/well in 40 μL RPMI+10% FBS in a 384-well cell culture plate prior to using acoustic dispensing technology for adding a compound of interest. Cell cultures were incubated for 72 h at 37° C. and 5% CO2. In order to facilitate analysis, cell cultures were spun down at 200 rpm for 5 min and the supernatant was discarded. After shaking the plate to dislodge the cell pellet, cells were resuspended in 50 μL of Fixation Buffer (eBioscience FoxP3 buffer set 00-5523-00) for 60 min at room temperature. After centrifuging and discarding the supernatant, cells were permeabilized with 50 μL of Permeabilization buffer (eBioscience FoxP3 buffer set 00-5523-00) for 10 min at room temperature. Following permeabilization, cells were spun down and the supernatant was replaced with 20 μL fluorescently labelled antibodies against Helios, Ikaros and Aiolos or corresponding Isotype controls in 1× Permeabilization buffer (Ikaros-Alexa488 [Biolegend, Cat #368408, 1:50], Helios-PE [CST, Cat #29360, 1:50], Aiolos-Alexa647 [Biolegend, Cat #371106 Biolegend, 1:25]) and staining reactions were incubated for 1 h at room temperature while protected from light. Subsequently, 30 μL of 1× Permeabilization buffer was added prior to centrifuging the cells and discarding the supernatant. Stained cells were resuspended in 25 μL of flow cytometry staining buffer [PBS+0.2% bovine serum albumin (BSA)] and analyzed using an Intellicyt Ique Plus flow cytometer.
(§1) Table A-1 lists the maximum observed degradation of the IKZF1 protein, IKZF2 protein, and IKZF3 protein as measured in the Jurkat Cellular Degradation assay. The results in Table A-I were rounded to two digits. In the Jurkat Cellular Degradation assay, a value of 100% indicated no detectable protein remaining or complete degradation of the protein; and a value of 0% indicated no detectable degradation of the protein by the test compound.

IKZF3 Aiolos [2] = molecular target: T1, IKZF3 Aiolos; assay: Human CD8+ T Cell Reprogramming (Degradation) Assay (Aiolos); type: cell-based; parameters: Cryopreserved healthy donor human peripheral blood mononuclear cells (PBMC); endogenous in cells; host or cells: CD8+ T cells within healthy donor human PBMC; details: 24 h
Procedure: Cryopreserved healthy donor human peripheral blood mononuclear cells (PBMC) from healthy donors were thawed and seeded at 500,000 cells/well of 96-well round bottom plates in RPMI 1640 media (Gibco) supplemented with 10% FBS, Pen/Strep (Gibco), MEM-NEAA (Gibco), and sodium pyruvate (Gibco). Cells were treated with titrated doses of compound for 24 hours at 37° C., 5% CO2 before analyzing by flow cytometry.
For flow cytometry staining, cells were washed twice with flow cytometry staining buffer (Thermo Fisher) and incubated in Human Tru-stain Fc block (Biolegend) for 10 minutes before adding eFluor780 viability dye (Thermo Fisher) and surface marker antibody cocktail containing LD-eFluor780, CD3-BUV-395, CD4-BUV805, CD8-FITC, and CD25-BV605 for 30 minutes at 4° C. Cells were then fixed and permeabilized by incubation with permeabilization buffer (eBioscience FoxP3 buffer set 00-5523-00) for 30 minutes at 4° C. as per the kit manufacturer's instructions. Cells were washed twice with the Perm/Wash buffer supplied in the kit as per the manufacturer's instructions and incubated overnight at 4° C. with an intracellular antibody cocktail comprised of antibodies specific for the transcription factors (i.e., Foxp3-BV421, HELIOS-PE-Cy7, EOS-PE, IKAROS-PECF594, AIOLOS-AF647). Cells were washed twice with Perm/Wash buffer and resuspended in flow cytometry staining buffer (Thermo Fisher) prior to acquisition. Sample acquisition and analysis was performed using a BD LSRFortessa (BD Biosciences) flow cytometer. Single-stain controls for each fluorochrome were prepared using UltraComp eBead Compensation Beads (Thermo Fisher). Data were analyzed using FlowJo version 10 and GraphPad Prism Software.
as §1, with “D-1” for “A-1”, “protein” for “protein, IKZF2 protein,”, “Human CD8^+ T Cell Reprogramming” for “Jurkat Cellular Degradation”, “D-1” for “A-I”

T1 sequence (Q9UKT9 whole entry): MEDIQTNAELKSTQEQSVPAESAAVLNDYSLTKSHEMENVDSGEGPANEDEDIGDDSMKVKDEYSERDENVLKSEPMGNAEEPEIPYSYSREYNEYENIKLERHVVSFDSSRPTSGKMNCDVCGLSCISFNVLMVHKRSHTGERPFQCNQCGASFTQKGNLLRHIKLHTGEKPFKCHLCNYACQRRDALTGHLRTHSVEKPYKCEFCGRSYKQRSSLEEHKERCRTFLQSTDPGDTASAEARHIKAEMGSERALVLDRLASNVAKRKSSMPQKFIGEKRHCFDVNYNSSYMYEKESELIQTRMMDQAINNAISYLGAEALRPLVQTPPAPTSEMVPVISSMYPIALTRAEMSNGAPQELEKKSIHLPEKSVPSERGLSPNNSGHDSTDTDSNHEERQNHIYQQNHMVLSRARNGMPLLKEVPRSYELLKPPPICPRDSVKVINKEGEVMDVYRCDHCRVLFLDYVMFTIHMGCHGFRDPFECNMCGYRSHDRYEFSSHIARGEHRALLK
T1 sequence (Q96SW2 whole entry): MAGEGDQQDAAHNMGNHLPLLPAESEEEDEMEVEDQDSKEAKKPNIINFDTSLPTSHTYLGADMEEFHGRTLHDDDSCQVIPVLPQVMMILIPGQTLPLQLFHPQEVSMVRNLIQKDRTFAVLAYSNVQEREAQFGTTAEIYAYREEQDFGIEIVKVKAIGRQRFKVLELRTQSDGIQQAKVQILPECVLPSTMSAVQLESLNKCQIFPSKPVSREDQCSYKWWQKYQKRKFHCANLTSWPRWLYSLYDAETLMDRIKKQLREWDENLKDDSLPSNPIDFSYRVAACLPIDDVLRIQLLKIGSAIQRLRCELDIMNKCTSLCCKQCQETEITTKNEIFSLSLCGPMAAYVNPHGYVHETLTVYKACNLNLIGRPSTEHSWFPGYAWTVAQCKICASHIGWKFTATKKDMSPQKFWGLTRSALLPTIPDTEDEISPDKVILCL
T1 sequence (Q16531 whole entry partner): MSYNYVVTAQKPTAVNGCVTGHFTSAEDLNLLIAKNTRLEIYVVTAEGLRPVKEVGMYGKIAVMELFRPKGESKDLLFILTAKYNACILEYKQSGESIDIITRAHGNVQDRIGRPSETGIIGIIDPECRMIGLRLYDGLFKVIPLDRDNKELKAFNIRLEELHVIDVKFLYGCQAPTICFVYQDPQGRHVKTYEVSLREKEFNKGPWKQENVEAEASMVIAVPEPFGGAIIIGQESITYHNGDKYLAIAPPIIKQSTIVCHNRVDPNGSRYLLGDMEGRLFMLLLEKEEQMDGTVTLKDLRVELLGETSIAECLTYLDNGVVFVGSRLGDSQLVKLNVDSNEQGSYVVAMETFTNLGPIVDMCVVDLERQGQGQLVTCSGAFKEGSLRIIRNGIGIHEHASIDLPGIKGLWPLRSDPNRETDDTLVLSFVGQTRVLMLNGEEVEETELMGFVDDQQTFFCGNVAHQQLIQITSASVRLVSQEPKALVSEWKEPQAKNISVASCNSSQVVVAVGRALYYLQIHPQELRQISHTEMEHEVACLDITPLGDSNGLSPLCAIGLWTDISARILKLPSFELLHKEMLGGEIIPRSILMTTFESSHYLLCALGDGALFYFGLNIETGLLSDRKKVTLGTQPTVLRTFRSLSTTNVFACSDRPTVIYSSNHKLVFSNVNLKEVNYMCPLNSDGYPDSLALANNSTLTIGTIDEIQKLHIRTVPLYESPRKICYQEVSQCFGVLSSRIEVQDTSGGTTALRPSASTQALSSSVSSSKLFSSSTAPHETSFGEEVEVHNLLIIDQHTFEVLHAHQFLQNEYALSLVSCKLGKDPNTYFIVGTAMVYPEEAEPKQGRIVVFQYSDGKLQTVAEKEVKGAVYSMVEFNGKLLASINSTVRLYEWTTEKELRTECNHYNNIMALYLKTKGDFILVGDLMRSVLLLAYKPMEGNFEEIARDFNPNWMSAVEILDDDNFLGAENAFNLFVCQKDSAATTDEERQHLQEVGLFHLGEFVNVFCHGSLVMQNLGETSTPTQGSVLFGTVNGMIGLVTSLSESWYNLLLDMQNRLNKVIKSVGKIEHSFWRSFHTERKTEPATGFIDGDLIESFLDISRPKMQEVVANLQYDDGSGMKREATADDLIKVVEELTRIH

DC50 (IKZF3 Aiolos [1]; concentration reducing protein level by 50% compared to DMSO alone): > 10 µM
Dmax (IKZF3 Aiolos [1]; human, read-out: IKZF3 Aiolos max % deg. observed): 48%
Dmax (IKZF3 Aiolos [2]; summary table, Human CD8+ T Cell Reprogramming Assay (Table D-1), read-out: IKZF3 Aiolos max % deg. observed (Table E)): 80 to 84%
DC50 (IKZF3 Aiolos [2]; CD8+ T cells, human PBMC, concentration reducing protein level by 50% compared to DMSO alone): 33 to 36 nM
Dmax (IKZF3 Aiolos [2]; CD8+ T cells, human PBMC, read-out: IKZF3 Aiolos Maximum Observed Degradation): 80 to 84%
Dmax (IKZF3 Aiolos [2]; human, text summary of Table D-1, read-out: decreased the level of IKZF3 (Aiolos)): ≥ 80%
Compound: Nc1nc(-c2ccc3c(c2F)CN(C2CCC(=O)NC2=O)C3=O)ccc1CN1CC(C2CCC(F)(F)CC2)C1 (stereo not drawn) [Example 1, 3-(5-(6-Amino-5-((3-(4,4-difluorocyclohexyl)azetidin-1-yl)methyl)pyridin-2-yl)-4-fluoro-1-oxoisoindolin-2-yl) piperidine-2,6-dione]
